Experimental data from the supplement of paper PMC13380429.

Assays:
Settings in all cases: 72 h
U2OS [1] = experiment: drug sensitivity score (DSS) for viability; higher = more toxic; extreme values may be limits of the assay
Caco-2 [2] = experiment: as above
Vero E6 [3] = experiment: as above
Calu-3 [4] = experiment: as above
U2OS [5] = experiment: relative viability EC50 (midpoint between 100% and the lowest measured viability); higher = less toxic
Caco-2 [6] = experiment: as above
Vero E6 [7] = experiment: as above
Calu-3 [8] = experiment: as above
U2OS [9] = experiment: cell viability relative to DMSO; higher = less toxic
Caco-2 [10] = experiment: as above
Vero E6 [11] = experiment: as above
Calu-3 [12] = experiment: as above
HepG2 [13] = experiment: drug sensitivity score (DSS) for viability; higher = more toxic; extreme values may be limits of the assay
HepG2 [14] = experiment: cell viability relative to DMSO; higher = less toxic
HepG2 [15] = experiment: relative viability EC50 (midpoint between 100% and the lowest measured viability); higher = less toxic

| SMILES | drug sensitivity score (U2OS [1]) | drug sensitivity score (Caco-2 [2]) | drug sensitivity score (Vero E6 [3]) | drug sensitivity score (Calu-3 [4]) | relative viability EC50 (U2OS [5]) | relative viability EC50 (Caco-2 [6]) | relative viability EC50 (Vero E6 [7]) | relative viability EC50 (Calu-3 [8]) | cell viability (U2OS [9]; 1 nM) | cell viability (U2OS [9]; 10 nM) | cell viability (U2OS [9]; 100 nM) | cell viability (U2OS [9]; 1000 nM) | cell viability (U2OS [9]; 10000 nM) | cell viability (Caco-2 [10]; 1 nM) | cell viability (Caco-2 [10]; 10 nM) | cell viability (Caco-2 [10]; 100 nM) | cell viability (Caco-2 [10]; 1000 nM) | cell viability (Caco-2 [10]; 10000 nM) | cell viability (Vero E6 [11]; 1 nM) | cell viability (Vero E6 [11]; 10 nM) | cell viability (Vero E6 [11]; 100 nM) | cell viability (Vero E6 [11]; 1000 nM) | cell viability (Vero E6 [11]; 10000 nM) | cell viability (Calu-3 [12]; 1 nM) | cell viability (Calu-3 [12]; 10 nM) | cell viability (Calu-3 [12]; 100 nM) | cell viability (Calu-3 [12]; 1000 nM) | cell viability (Calu-3 [12]; 10000 nM) | drug sensitivity score (HepG2 [13]) | cell viability (HepG2 [14]; 1 nM) | cell viability (HepG2 [14]; 10 nM) | cell viability (HepG2 [14]; 100 nM) | cell viability (HepG2 [14]; 1000 nM) | cell viability (HepG2 [14]; 10000 nM) | relative viability EC50 (HepG2 [15]) |
| --- | --- | --- | --- | --- | --- | --- | --- | --- | --- | --- | --- | --- | --- | --- | --- | --- | --- | --- | --- | --- | --- | --- | --- | --- | --- | --- | --- | --- | --- | --- | --- | --- | --- | --- | --- |
| OC[C@H]1O[C@@H](Oc2cc3c(O)cc(O)cc3[o+]c2-c2ccc(O)c(O)c2)[C@H](O)[C@@H](O)[C@@H]1O [kuromanin] | 0 | 0 | 0 | 0 | > 10 µM | > 10 µM | > 10 µM | > 10 µM | 96.6% | 99.8% | 96.6% | 99.5% | 93.6% | 98.3% | 95.4% | 86.5% | 100% | 96.7% | 103% | 102% | 103% | 98% | 94.4% | 98.7% | 111% | 89.7% | 102% | 98.8% |  |  |  |  |  |  |  |
| C[C@H]1[C@H](OC(=O)CCC(=O)O)O[C@@H]2O[C@@]3(C)CC[C@H]4[C@H](C)CC[C@@H]1[C@@]24OO3 [artesunate] | 6.4 | 1.3 | 1.6 | 0 | 1.42 µM |  |  | > 10 µM | 102% | 100% | 100% | 81% | 35.3% | 102% | 96.1% | 98.3% | 98.3% | 73% | 97.4% | 97.8% | 96.5% | 98.5% | 69.2% | 104% | 98.3% | 114% | 107% | 88% | 2.8 | 91.9% | 96.5% | 94.5% | 88.3% | 65.2% |  |
| O=C(/C=C/c1cccnc1)c1ccncc1 [3PO] | 0.5 | 1.8 | 0 |  | > 10 µM | > 10 µM | > 10 µM |  | 101% | 99.7% | 100% | 99% | 82.5% | 103% | 97.1% | 99.7% | 92.3% | 77.3% | 107% | 112% | 100% | 111% | 87.7% |  |  |  |  |  | 0.7 | 103% | 102% | 93.2% | 112% | 72.7% |  |
| Cc1ccc(C(=O)c2cc(O)c(O)c([N+](=O)[O-])c2)cc1 [tolcapone] |  |  | 0 |  |  |  | > 10 µM |  |  |  |  |  |  |  |  |  |  |  | 109% | 102% | 99.8% | 100% | 104% |  |  |  |  |  | 0 | 106% | 117% | 105% | 109% | 97.2% | > 10 µM |
| Cc1cc2c(F)c(Oc3ncnn4cc(OC[C@@H](C)OC(=O)[C@H](C)N)c(C)c34)ccc2[nH]1 [brivanib-alaninate] | 1 | 0.1 | 0 | 0.1 |  | > 10 µM | > 10 µM | > 10 µM | 94.2% | 101% | 92.5% | 101% | 73.1% | 91.8% | 98.5% | 88.2% | 101% | 86.3% | 93.1% | 96% | 96.5% | 90.9% | 88.2% | 90.8% | 103% | 95.3% | 102% | 86.5% |  |  |  |  |  |  |  |
| C[N+](C)(C)CCOC(N)=O [carbachol] | 0 | 0 | 0 | 0 | > 10 µM | > 10 µM | > 10 µM | > 10 µM | 107% | 107% | 98.3% | 103% | 98.3% | 93.6% | 98.2% | 106% | 99.1% | 106% | 101% | 98.4% | 97.3% | 97.2% | 99% | 95% | 102% | 94% | 97.8% | 100% |  |  |  |  |  |  |  |
| O=C1NC(=O)[C@@]2(CCOc3ccc(F)cc32)N1 [sorbinil] | 0 |  |  | 0 | > 10 µM |  |  | > 10 µM | 96.7% | 105% | 97% | 102% | 96.5% |  |  |  |  |  |  |  |  |  |  | 103% | 120% | 87.5% | 113% | 102% |  |  |  |  |  |  |  |
